# Experimental data from patent US10590140B2, “Tetrahydropyrimidodiazepine and dihydropyridodiazepine compounds for treating pain and pain related conditions” (ESTEVE PHARMACEUTICALS, S.A., priority 2016, dated 2020).
# Biological target: human α2δ-1 subunit of Cav2.2 calcium channel (Homo sapiens (Human), UniProt P54289)
# Assay: Binding assay to human α2δ-1 subunit of Cav2.2 calcium channel ([3H]-Gabapentin)
# Conditions: binding to α2δ-1, [3H]-Gabapentin; read-out: Ki (nM) α2δ-1
# Protocol: Binding Assay to Human α2δ-1 Subunit of Cav2.2 Calcium Channel.
# NSB (non specific binding) was measured by adding 10 μM pregabalin. After 60 min incubation at 27° C., binding reaction was terminated by filtering through Multiscreen GF/C (Millipore) presoaked in 0.5% polyethyleneimine in Vacuum Manifold Station, followed by 3 washes with ice-cold filtration buffer containing 50 mM Tris-HCl, pH 7.4.
# Filter plates were dried at 60° C. for 1 hour and 30 μl of scintillation cocktail were added to each well before radioactivity reading.
# human α2δ-1 subunit of Cav2.2 calcium channel, sequence (P54289 25-1103): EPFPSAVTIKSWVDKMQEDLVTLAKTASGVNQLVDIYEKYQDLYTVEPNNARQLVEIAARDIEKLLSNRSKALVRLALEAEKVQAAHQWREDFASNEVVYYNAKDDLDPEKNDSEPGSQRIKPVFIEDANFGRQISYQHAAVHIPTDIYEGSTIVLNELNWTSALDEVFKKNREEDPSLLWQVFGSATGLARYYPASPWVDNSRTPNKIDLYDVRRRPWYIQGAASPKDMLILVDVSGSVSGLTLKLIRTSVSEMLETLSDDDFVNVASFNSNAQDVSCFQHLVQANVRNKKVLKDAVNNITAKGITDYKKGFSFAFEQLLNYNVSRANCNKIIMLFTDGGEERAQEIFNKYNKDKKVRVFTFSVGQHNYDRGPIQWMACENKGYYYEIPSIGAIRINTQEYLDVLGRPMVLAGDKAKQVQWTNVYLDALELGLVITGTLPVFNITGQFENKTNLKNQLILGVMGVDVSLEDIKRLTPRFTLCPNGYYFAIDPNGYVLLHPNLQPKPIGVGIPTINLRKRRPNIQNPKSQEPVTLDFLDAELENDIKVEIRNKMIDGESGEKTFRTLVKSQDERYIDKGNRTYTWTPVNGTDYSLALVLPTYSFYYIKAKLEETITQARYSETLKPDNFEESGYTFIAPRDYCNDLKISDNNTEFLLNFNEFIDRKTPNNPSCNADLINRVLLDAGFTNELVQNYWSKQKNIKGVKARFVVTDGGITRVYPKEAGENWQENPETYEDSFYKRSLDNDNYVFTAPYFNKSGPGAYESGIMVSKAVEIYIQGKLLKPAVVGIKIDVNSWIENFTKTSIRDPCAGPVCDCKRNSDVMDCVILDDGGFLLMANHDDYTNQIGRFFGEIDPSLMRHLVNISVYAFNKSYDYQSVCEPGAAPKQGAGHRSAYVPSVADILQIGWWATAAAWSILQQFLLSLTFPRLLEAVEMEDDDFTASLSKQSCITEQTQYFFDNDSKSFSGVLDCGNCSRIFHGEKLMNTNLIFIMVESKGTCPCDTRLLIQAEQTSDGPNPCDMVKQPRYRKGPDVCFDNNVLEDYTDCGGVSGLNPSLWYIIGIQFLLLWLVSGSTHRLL
row,Structure (SMILES),Ki [nM]
1,"CCNc1ncc2c(n1)N(C)CCN(c1cccc(O[Si](C)(C)C(C)(C)C)c1)C2=O [Example 111, 6-(3-((tert-butyldimethylsilyl)oxy)phenyl)-2-(ethylamino)-9-methyl-6,7,8,9-tetrahydro-5H-pyrimido[4,5-e][1,4]diazepin-5-one]",> 3000
2,"Cc1nnc(-c2cccc(N3CCN(C)c4nc(NCCc5ccccc5)ncc4C3=O)c2)o1 [Example 105, 9-methyl-6-(3-(5-methyl-1,3,4-oxadiazol-2-yl)phenyl)-2-(phenethylamino)-6,7,8,9-tetrahydro-5H-pyrimido[4,5-e][1,4]diazepin-5-one]",> 3000
3,"CSc1ncc2c(n1)N(C)CCN(c1cccc(OC(CCN(C)C(=O)OC(C)(C)C)c3ccccc3)c1)C2=O (centres unmarked) [Example 1, tert-Butyl methyl(3-(3-(9-methyl-2-(methylthio)-5-oxo-5,7,8,9-tetrahydro-6H-pyrimido[4,5-e][1,4]diazepin-6-yl)phenoxy)-3-phenylpropyl) carbamate]",> 3000
4,"CNCCC(Oc1ccccc1CN1CCN(C)c2ncncc2C1=O)c1ccccc1 (centres unmarked) [Example 431, 9-methyl-6-(2-(3-(methylamino)-1-phenylpropoxy)benzyl)-6,7,8,9-tetrahydro-5H-pyrimido[4,5-e][1,4]diazepin-5-one]",> 3000
5,"Cc1ncc2c(n1)N(C)CCN(c1cccc(COC(CCN(C)C(=O)OC(C)(C)C)c3cccs3)c1)C2=O (centres unmarked) [Example 143, tert-butyl (3-((3-(2,9-dimethyl-5-oxo-5,7,8,9-tetrahydro-6H-pyrimido[4,5-e][1,4]diazepin-6-yl)benzyl)oxy)-3-(thiophen-2-yl)propyl)(methyl) carbamate]",> 3000
6,"CNCCC(Oc1ccccc1CN1CCN(C)c2nc(SC)ncc2C1=O)c1ccccc1 (centres unmarked) [Example 370, 9-methyl-6-(2-(3-(methylamino)-1-phenylpropoxy)benzyl)-2-(methylthio)-6,7,8,9-tetrahydro-5H-pyrimido[4,5-e][1,4]diazepin-5-one]",> 3000
7,"Cc1cc2c(cn1)C(=O)N(c1cccc(OC(CCN(C)C(=O)OCC[Si](C)(C)C)c3cccs3)c1)CCN2C (centres unmarked) [Example 302, 2-(trimethylsilyl)ethyl (3-(3-(1,8-dimethyl-5-oxo-1,2,3,5-tetrahydro-4H-pyrido[4,3-e][1,4]diazepin-4-yl)phenoxy)-3-(thiophen-2-yl)propyl) (methyl)carbamate]",> 3000
8,"CCNc1ncc2c(n1)N(C)CCN(c1cccc(CN(C)C(=O)OC(C)(C)C)c1)C2=O [Example 94, tert-butyl (3-(2-(ethylamino)-9-methyl-5-oxo-5,7,8,9-tetrahydro-6H-pyrimido[4,5-e][1,4]diazepin-6-yl)benzyl)(methyl) carbamate]",> 3000
9,"CCNc1ncc2c(n1)N(C)CCN(c1cccc(CCN(C)C(=O)OC(C)(C)C)c1)C2=O [Example 92, tert-butyl (3-(2-(ethylamino)-9-methyl-5-oxo-5,7,8,9-tetrahydro-6H-pyrimido[4,5-e][1,4]diazepin-6-yl)phenethyl)(methyl) carbamate]",> 3000
10,"CSc1ncc2c(n1)N(C)CCN(c1cccc(OC(CCN(C)C(=O)OC(C)(C)C)c3cccnc3)c1)C2=O (centres unmarked) [Example 53, tert-butyl methyl(3-(3-(9-methyl-2-(methylthio)-5-oxo-5,7,8,9-tetrahydro-6H-pyrimido[4,5-e][1,4]diazepin-6-yl)phenoxy)-3-(pyridin-3-yl)propyl) carbamate]",> 3000
11,"CCNc1ncc2c(n1)N(C)CCN(c1cccc(CO[C@H](CCN(C)C(=O)OC(C)(C)C)c3ccccc3)c1)C2 [Example 65, tert-Butyl (R)-(3-((3-(2-(ethylamino)-9-methyl-5,7,8,9-tetrahydro-6H-pyrimido[4,5-e][1,4]diazepin-6-yl)benzyl)oxy)-3-phenylpropyl)(methyl)carbamate]",> 3000
12,"CN(CCC(OCc1cccc(N2CCN(C)c3nc(O)ncc3C2=O)c1)c1cccs1)C(=O)OC(C)(C)C (centres unmarked) [Example 141, tert-butyl (3-((3-(2-hydroxy-9-methyl-5-oxo-5,7,8,9-tetrahydro-6H-pyrimido[4,5-e][1,4]diazepin-6-yl)benzyl)oxy)-3-(thiophen-2-yl)propyl)(methyl)carbamate]",> 3000
13,"CSc1ncc2c(n1)N(C)CCN(c1cccc(OC(CCN(C)C(=O)OC(C)(C)C)c3cccs3)c1)C2=O (centres unmarked) [Example 12, tert-butyl methyl(3-(3-(9-methyl-2-(methylthio)-5-oxo-5,7,8,9-tetrahydro-6H-pyrimido[4,5-e][1,4]diazepin-6-yl)phenoxy)-3-(thiophen-2-yl)propyl) carbamate]",> 3000
14,"CNCCC(OCc1ccccc1CN1CCN(C)c2nc(C)ncc2C1=O)c1ccccc1 (centres unmarked) [Example 421, 2,9-dimethyl-6-(2-((3-(methylamino)-1-phenylpropoxy)methyl)benzyl)-6,7,8,9-tetrahydro-5H-pyrimido[4,5-e][1,4]diazepin-5-one]",> 3000
15,"CCNc1ncc2c(n1)N(C)CCN(c1cccc(OC(CN)c3ccccc3)c1)C2=O (centres unmarked) [Example 156, 6-(3-(2-amino-1-phenylethoxy)phenyl)-2-(ethylamino)-9-methyl-6,7,8,9-tetrahydro-5H-pyrimido[4,5-e][1,4]diazepin-5-one]",> 3000

# Further lines, results first:
row,Ki [nM],Structure (SMILES)
1,> 3000,"CN(CCC(OCc1cccc(N2CCN(C)c3cc(Cl)ncc3C2=O)c1)c1ccccc1)C(=O)OC(C)(C)C (centres unmarked) [Example 300, tert-butyl (3-((3-(8-chloro-1-methyl-5-oxo-1,2,3,5-tetrahydro-4H-pyrido[4,3-e][1,4]diazepin-4-yl)benzyl)oxy)-3-phenylpropyl)(methyl) carbamate]"
2,100 to 500,"CCN1CCN(Cc2ccc(O[C@@H](CCNC)c3cccs3)cc2)C(=O)c2cncnc21 [Example 398, (S)-9-ethyl-6-(4-(3-(methylamino)-1-(thiophen-2-yl)propoxy)benzyl)-6,7,8,9-tetrahydro-5H-pyrimido[4,5-e][1,4]diazepin-5-one]"
3,> 3000,"CSc1ncc2c(n1)N(C)CCN(c1cccc(COC(CCN(C)C(=O)OC(C)(C)C)C(C)C)c1)C2=O (centres unmarked) [Example 49, tert-butyl methyl (4-methyl-3-((3-(9-methyl-2-(methylthio)-5-oxo-5,7,8,9-tetrahydro-6H-pyrimido[4,5-e][1,4]diazepin-6-yl)benzyl)oxy)pentyl) carbamate]"
4,500 to 3000,"CCNc1ncc2c(n1)N(C)CCN(c1cccc(OC(CN(C)CCc3ccccc3)C(C)C)c1)C2=O (centres unmarked) [Example 268, 2-(ethylamino)-9-methyl-6-(3-((3-methyl-1-(methyl(phenethyl)amino)butan-2-yl)oxy)phenyl)-6,7,8,9-tetrahydro-5H-pyrimido[4,5-e][1,4]diazepin-5-one]"
5,> 3000,"CCNc1ncc2c(n1)N(C)CCN(c1cccc(Cn3cc(CN(C)C(=O)OC(C)(C)C)nn3)c1)C2=O [Example 121, tert-butyl ((1-(3-(2-(ethylamino)-9-methyl-5-oxo-5,7,8,9-tetrahydro-6H-pyrimido[4,5-e][1,4]diazepin-6-yl)benzyl)-1H-1,2,3-triazol-4-yl)methyl)(methyl) carbamate]"
6,100 to 500,"CCNc1cc2c(cn1)C(=O)N(c1cccc(-c3nnc(C)o3)c1)CCN2C [Example 54, 8-(ethylamino)-1-methyl-4-(3-(5-methyl-1,3,4-oxadiazol-2-yl)phenyl)-1,2,3,4-tetrahydro-5H-pyrido[4,3-e][1,4]diazepin-5-one]"
7,500 to 3000,"CCNc1ncc2c(n1)N(C)CCN(c1cccc(CN3CCC(c4ccccc4)(N(C)C)CC3)c1)C2=O [Example 292, 6-(3-((4-(dimethylamino)-4-phenylpiperidin-1-yl)methyl)phenyl)-2-(ethylamino)-9-methyl-6,7,8,9-tetrahydro-5H-pyrimido[4,5-e] [1,4]diazepin-5-one]"
8,500 to 3000,"CNCC[C@H](Oc1ccc(CN2CCN(C)c3ccncc3C2=O)cc1)c1ccccc1 [Example 377, (S)-1-methyl-4-(4-(3-(methylamino)-1-phenylpropoxy)benzyl)-1,2,3,4-tetrahydro-5H-pyrido[4,3-e][1,4]diazepin-5-one]"
9,100 to 500,"CCNc1ncc2c(n1)N(C)CCN(c1cccc(-n3cc(CN4CCC5(CC4)NCCc4ccccc45)nn3)c1)C2=O [Example 283, 6-(3-(4-((3,4-dihydro-2H-spiro[isoquinoline-1,4′-piperidin]-1′-yl)methyl)-1H-1,2,3-triazol-1-yl)phenyl)-2-(ethylamino)-9-methyl-6,7,8,9-tetrahydro-5H-pyrimido[4,5-e] [1,4]diazepin-5-one]"
10,100 to 500,"CCNc1ncc2c(n1)N(C)CCN(c1cccc(CCN(C)Cc3ccccc3)c1)C2=O [Example 269, 6-(3-(2-(benzyl(methyl)amino)ethyl)phenyl)-2-(ethylamino)-9-methyl-6,7,8,9-tetrahydro-5H-pyrimido[4,5-e][1,4]diazepin-5-one]"
11,100 to 500,"CNCCC(Oc1ccc(CN2CCN(C)c3nc(OC)ncc3C2=O)cc1)c1nccs1 (centres unmarked) [Example 390, 2-methoxy-9-methyl-6-(4-(3-(methylamino)-1-(thiazol-2-yl)propoxy)benzyl)-6,7,8,9-tetrahydro-5H-pyrimido[4,5-e][1,4]diazepin-5-one]"
12,500 to 3000,"CNCCC(Oc1ccc(CN2CCN(C)c3nc(OC)ncc3C2=O)cc1)c1ccccc1F (centres unmarked) [Example 376, 6-(4-(1-(2-fluorophenyl)-3-(methylamino)propoxy)benzyl)-2-methoxy-9-methyl-6,7,8,9-tetrahydro-5H-pyrimido[4,5-e][1,4]diazepin-5-one]"
13,500 to 3000,"CCNc1ncc2c(n1)N(C)CCN(c1cccc(OC)c1)C2=O [Example 109, 2-(ethylamino)-6-(3-methoxyphenyl)-9-methyl-6,7,8,9-tetrahydro-5H-pyrimido[4,5-e][1,4]diazepin-5-one]"
14,500 to 3000,"CNCCC(OCc1cccc(N2CCN(C)c3ccncc3C2=O)c1)c1ccccc1 (centres unmarked) [Example 317, 1-methyl-4-(3-((3-(methylamino)-1-phenylpropoxy)methyl)phenyl)-1,2,3,4-tetrahydro-5H-pyrido[4,3-e][1,4]diazepin-5-one]"
